Patent US20070148220A1, “Liposomes and liposomal compositions for vaccination and drug delivery” (priority 2003, published 2007)

Assays:
[1] = test system: TRP-2-specific T cells (splenocytes); test: Avidity of TRP-2-specific T cells (splenocyte proliferation, ATPlite); assay type: in vivo, BL6 mice; conditions: after two immunizations
Procedure: FIG. 22: Vaccination with liposomal-encapsulated TRP-2 plus CpG-PTO. The vaccination with liposomal-encapsulated TRP-2 plus CpG-PTO generates high avidity T cells. BL6 mice were vaccinated with 10 μg liposomal or 100 μg free TRP-2 plus 5 nmol free CpG ODN at weekly intervals up to three times. Lymphocytes were isolated from spleen (A) and lymph node (LN) (B) one week after last immunization and an IFNγ capture assay was performed as described. C, Avidity of T cells after vaccination with liposomal and free TRP-2 plus CpG ODN. One week after the last immunization splenocytes were nylon-wool enriched and cultured for 5 days in vitro in the presence of high dose (10^−6 mol/l) or low dose TRP-2 (10^−9 mol/l) or control peptide […] (10^−6 mol/l) with low dose IL2 (30 U/ml). Proliferation was estimated by a luminescence assay-based detection system measuring ATP content. Proliferation of splenocytes in the presence of anti-TCR plus anti-CD28 mAb was set to 100%. Representative data from one of two similar experiments are shown.
Finally, the avidity of TRP-2-specific CTLs in animals immunized with liposomal or free TRP-2, respectively (FIG. 21) was compared. […] In parallel to the IFNγ secretion assay nylon-wool column enriched splenocytes were cultured with high (10^−6 mol/l) and low dose TRP-2 (10^−9 mol/l), for 5 days and cell proliferation was determined using the ATPlite™-M system. […]

[2] = test system: B16.F1 and TRP-2 pulsed EL4; test: CTL cytotoxicity against TRP-2 presenting cells after immunization; assay type: in vivo, mouse; conditions: free versus liposomal
Procedure: In another set of experiments antigen-specificity of cytotoxic T lymphocytes after liposomal vaccination (FIG. 20) was analyzed. Mice were immunized with AVE3-encapsulated or free TRP-2 and CpG-PTO as described above. Cells prepared from lymph nodes were then tested for cytotoxicity using as targets the mouse melanoma cell line B16.F1 know to present TRP-2 in the context of H-2K^b, TRP-2 pulsed EL4 cells, OVA peptide-pulsed EL4 cells, unpulsed EL4 cells, and YAC-1 cells to exclude a potential NK cell activity. […] As described above 10-fold higher amounts of free TRP-2 and 4-fold higher amounts of CpG-PTO were necessary to induce the same CTL response.

[3] = test system: murine B cells; test: Induction of B cell proliferation (CFSE); assay type: cell-based; conditions: ODN 5 to 200 nmol/l, free or AVE3-encapsulated
Excerpt: FIG. 12: Comparison of the biological activity of CpG-PTO and CpG-PDO. Cells were labeled with CFSE before being stimulated for 48 hrs with 0 to 0.2 μmol/l end concentration of ODNs in saline or liposomal. (black diamonds) CpG-PTO in saline; (grey diamonds) CpG-PDO in saline; (black squares) liposomal CpG-PTO; (grey squares) liposomal CpG-PDO. Dead cells were excluded by propidium iodide staining.
CpG oligonucleotides have been described to induce B cell proliferation. The effects of free or encapsulated CpG phosphorothioate oligonucleotides (CpG-PTO) (see example 6) on proliferation of murine B cells (FIG. 11A) were compared. […] Induction of B cell proliferation was dependent on the concentration of applied ODN with strong B cell proliferation observed between 50 to 200 nmol/l encapsulated ODN. Similar values were obtained for CpG-ODN encapsulated at different concentrations (between 4.6 μg/μmol lipid to 93.5 μg/μmol lipid). No induction of B cell proliferation was observed using free or encapsulated non-CpG-ODN (FIG. 11B).
CpG phosphorothioate (CpG-PTO) or CpG phosphodiester (CpG-PDO) oligonucleotides (see example 6) were analyzed for the induction of B cell proliferation in free or AVE3-encapsulated form using ODN concentrations between 5 to 200 nmol/l. […]

Substance	avidity of T cells, liposomal vs. free TRP-2 [1]	higher amounts necessary to induce the same CTL response [2] [fold]	induction of B cell proliferation [3]
free TRP-2: antigenic peptide TRP-2 (SVYDFFVWL), not encapsulated	more polyclonal response of splenocytes consisting of low and high avidity T cells	10	
non-CpG-ODN: non-CpG-1982-PTO, 5′-TCCAGGACTTCTCTCAGGT-3′, free (DNA, all phosphorothioate, methylation of C not given here)			No induction
